Counter-ions that a name gives are not always drawn.
Experiments:
Settings in all cases: exposure time 48 h
[1] = tested on: Caenorhabditis elegans N2; test: AC50 for larval growth inhibition (Hill fit); higher = less potent
How it was run: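 Worms were synchronised C. elegans N2 L1 larvae, 50 per well of a 96-well plate, kept 48 h at 20°C in K-medium with killed OP50, 1% DMSO and 0.5–200 µM chemical. Size was taken as COPAS Biosort extinction, log-transformed and averaged per well, using only wells with at least 10 worms. AC50 was estimated by a constrained Hill fit with weighted genetic-algorithm regression; values outside the range are censored.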

[2] = tested on: Caenorhabditis elegans N2; test: lowest effective concentration for larval growth inhibition (size below effect threshold); higher = less potent
How it was run: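 Chemical exposure ran for 48 h at 20°C: 50 C. elegans N2 L1 larvae per 96-well in K-medium with killed bacteria, 1% DMSO and 0.5, 1, 5, 10, 50, 100 or 200 µM chemical. Extinction of each worm, read as size on the Biosort, was log-transformed and averaged by well. The lowest effective concentration is the first dose whose plate-adjusted mean size is below a fixed value and remains so at all higher doses; the value is 5.665.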

[3] = tested on: Caenorhabditis elegans N2; test: mean nematode size ln(EXT) after 48 h, plate-adjusted (DMSO control set to 6) (ln(EXT), control-adjusted); higher = larger nematodes / less growth inhibition
How it was run: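 Synchronised C. elegans N2 L1 larvae (50 per well, 4–6 wells per treatment) were grown for 48 h at 20°C in K-medium with killed OP50, 1% DMSO and 0.5–200 µM chemical. The Biosort measured each worm's extinction, and debris was removed by a growth model. Values were natural-logged and averaged per well. Mean size was then plate-adjusted by subtracting the vehicle control mean and adding 6.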

SMILES	AC50 for larval growth inhibition [1] [µM]	lowest effective concentration [2] [µM]	mean nematode size ln(EXT) (ln) ([3]; 0.5 µM)	mean nematode size ln(EXT) (ln) ([3]; 1 µM)	mean nematode size ln(EXT) (ln) ([3]; 5 µM)	mean nematode size ln(EXT) (ln) ([3]; 10 µM)	mean nematode size ln(EXT) (ln) ([3]; 50 µM)	mean nematode size ln(EXT) (ln) ([3]; 100 µM)	mean nematode size ln(EXT) (ln) ([3]; 200 µM)
S=C([S-])NCCNC(=S)[S-].S=C([S-])NCCNC(=S)[S-].[Mn+2].[Zn+2] [Mancozeb]	> 200	200	5.79	5.84	5.84	5.85	5.83	5.7	5.39
CCOC(=O)NCCOc1ccc(Oc2ccccc2)cc1 [Fenoxycarb]	37.2	10	5.96	5.87	5.9	5.59	4.47	4.1	3.72
CCC(C)c1ccc(O)cc1 (stereo not drawn) [4-(Butan-2-yl)phenol]	142	200	6.03	6.09	6.07	6.08	6.05	6.02	5.52
Clc1ccc(C(c2ccccc2Cl)C(Cl)(Cl)Cl)cc1 (stereo not drawn) [o,p'-DDT]	24.1	10	5.7	5.89	5.78	5.19	4.4	4.09	3.85
CCOP(=S)(OCC)SCSP(=S)(OCC)OCC [Ethion]	99.2	1	5.78	5.62	5.28	5.04	4.93	4.85	4.06
CC(C)c1cccc(C(C)C)c1N1C(=O)c2ccc(O)cc2C1=O [5HPP-33]	58.6	50	5.78	5.75	5.75	5.76	5.62	4.88	4.78
Clc1ccc(Cl)c(Cl)c1 [1,2,4-Trichlorobenzene]	186	200	5.82	5.79	5.69	5.76	5.66	5.84	4.27
CN(C)c1nc(=O)n(C2CCCCC2)c(=O)n1C [Hexazinone]	109	200	5.85	5.89	5.89	5.92	6	5.92	5.62
CN(C)CCOC(c1ccccc1)c1ccccc1 [Diphenhydramine hydrochloride]	> 200	200	5.87	5.9	5.91	5.91	5.78	5.78	5.39
ClC1=C(Cl)[C@]2(Cl)[C@@H]3[C@@H]4C[C@@H]([C@H]5O[C@@H]45)[C@@H]3[C@@]1(Cl)C2(Cl)Cl [Dieldrin]	171	5	5.78	5.82	5.39	5.26	5.12	5.07	4.21
CCCCOC(=O)c1ccccc1C(=O)OCCCC [Dibutyl phthalate]	20.9	50	6.09	6.09	5.61	5.99	4.67	5.62	5.42
CCCCOC(=O)[C@@H](C)Oc1ccc(Oc2ccc(C(F)(F)F)cn2)cc1 [Fluazifop-P-butyl]	98.7	100	6.18	6.51	6.31	6.37	6.22	5.52	4.99
COc1cc(C(C)C)c2c(c1)S(=O)(=O)N(COc1cc(=O)n3cccc(OCCN4CCCCC4)c3n1)C2=O	> 200	200	5.91	5.92	5.88	5.88	5.87	5.72	5.47
COc1ccc2cc(S(=O)(=O)N[C@H](CC(=O)N[C@H](Cc3ccc(CN4[C@H](C)CCC[C@@H]4C)cc3)C(=O)N(C)C(C)C)c3ccc4c(c3)OCO4)ccc2c1	> 200	100	5.87	5.8	5.85	5.73	5.76	5.43	4.99
c1cc2ccc3cccc4ccc(c1)c2c34 [Pyrene]	4.29	1	5.71	5.58	4.64	4.52	4.28	4.05	3.59
O=C(Oc1ccc(Br)cc1)N1CCN2CCC1CC2 [4-bromophenyl 1,4-diazabicyclo[3.2.2]nonane-4-carboxylate]	> 200	50	5.84	5.83	5.81	5.83	5.65	5.6	5.33
c1cc2c3c(cccc3c1)CC2 [Acenaphthene]	> 200	200	6.14	5.74	6.03	6.08	5.6	5.77	5.37
CC(=O)c1ccc2c(c1)[C@H](NC(=O)c1ccc(F)cc1)[C@@H](O)C(C)(C)O2 [Carabersat]	127	200	5.79	5.88	5.9	5.89	5.99	5.93	5.65
C[Si](Cn1cncn1)(c1ccc(F)cc1)c1ccc(F)cc1 [Flusilazole]	43.2	5	5.73	5.67	5.55	5.53	4.57	3.63	3.47
CCC(C)(c1ccc(O)cc1)c1ccc(O)cc1 [Bisphenol B]	87.1	100	5.9	5.81	5.9	5.74	5.87	5.14	4.74
CCOC(=O)C(C)OC(=O)c1cc(Oc2ccc(C(F)(F)F)cc2Cl)ccc1[N+](=O)[O-] (stereo not drawn) [Lactofen]	138	50	5.89	5.94	5.8	5.86	5.24	5.25	4.89
CCSC(=O)N1CCCCCC1 [Molinate]	> 200	≤ 0.5	5.42	5.42	5.29	5.63	5.44	5.62	5.21

Reference: the supplement of paper PMC4858399
